From article PMC9664868, “Dephospho-Coenzyme A Kinase Is an Exploitable Drug Target against Plasmodium falciparum: Identification of Selective Inhibitors by High-Throughput Screening of a Large Chemical Compound Library” (Antimicrobial Agents and Chemotherapy, 2022)

Tests used:
[1] = test system: P. falciparum drug-resistant Dd2 strain; assay: Erythrocytic-stage parasite growth inhibition, diaphorase-coupled LDH assay, Dd2; assay type: cell-based, Plasmodium falciparum; details: Plasmodium falciparum, DD2; Table S1; means ± SEM; read-out: IC50 (μM) Pf cell Dd2
Procedure: Selected hit compounds were also tested against erythrocytic-stage parasites of P. falciparum drug-sensitive 3D7 and drug-resistant Dd2 strains ([39]). For the phenotypic assay, parasite cultures were synchronized with 5% (wt/vol) D-sorbitol as previously described ([40]). A synchronized culture containing ring-stage parasites of 0.3% parasitemia was initiated with a culture volume of 25 μL/well on a 384-well plate. A series of diluted compounds (at final concentrations of 50, 10, 2, 0.4, and 0.08 μM) were used to calculate IC50 values. Mefloquine at 50 μM and atovaquone at 20 μM were used as no-growth control (100% inhibition). After 72 h of incubation, parasite growth was measured by diaphorase-coupled lactate dehydrogenase (LDH) assay as previously described ([41]). Absorbance at 650 nm was measured using SpectraMax Paradigm multimode microplate reader (Molecular Devices, San Jose, CA, USA). The IC50 values were calculated as described above.

HepG2 cell line = assay: Cytotoxicity assay (Cell Counting Kit-8); assay type: cell-based, human; details: Homo sapiens, HepG2; Table S1; means ± SEM; read-out: IC50 (μM) HepG2
Procedure: Cytotoxicity against human cells was evaluated using the human liver carcinoma HepG2 cell line. HepG2 cells were cultured in D-MED supplemented with 4 mM L-glutamine and 10% fetal bovine serum (FBS) in a 75-cm^2 flask (Violamo) at 37°C. For the cytotoxicity assay, HepG2 cells in semiconfluent state were detached from the flask by incubating the cells with 5 mL D-MEM containing 0.25% trypsin-EDTA. After detachment, HepG2 cells were resuspended in D-MEM-supplemented L-glutamine and FBS, and cell viability was evaluated by incubating cells with 0.4% Trypan blue on a hemocytometer. An approximately 50-μL suspension containing 3,000 cells was dispensed into each well on a 384-well clear-bottom plate using a Multidrop Combi dispenser. Compounds dissolved in DMSO had been dispensed into wells to yield final concentrations of 100, 20, 4, 0.8, and 0.2 μM before cells were added. After cells were added to the plates, they were cultured at 37°C under 5% CO2. After 48 h cultivation, 5 μL of Cell Counting Kit-8 (Dojindo, Japan) was added, and the plates were further incubated for 2 h to assess cell growth and survival.

HsCOASY = target: T1, HsCOASY (Homo sapiens, UniProt Q13057); assay: HsCOASY counterassay; assay type: biochemical; details: reciprocal plot analysis
T1 construct: His tag (pCold1 vector); made in house; host or cells: Escherichia coli BL21Star (DE3)
T1 sequence (Q13057 1-564): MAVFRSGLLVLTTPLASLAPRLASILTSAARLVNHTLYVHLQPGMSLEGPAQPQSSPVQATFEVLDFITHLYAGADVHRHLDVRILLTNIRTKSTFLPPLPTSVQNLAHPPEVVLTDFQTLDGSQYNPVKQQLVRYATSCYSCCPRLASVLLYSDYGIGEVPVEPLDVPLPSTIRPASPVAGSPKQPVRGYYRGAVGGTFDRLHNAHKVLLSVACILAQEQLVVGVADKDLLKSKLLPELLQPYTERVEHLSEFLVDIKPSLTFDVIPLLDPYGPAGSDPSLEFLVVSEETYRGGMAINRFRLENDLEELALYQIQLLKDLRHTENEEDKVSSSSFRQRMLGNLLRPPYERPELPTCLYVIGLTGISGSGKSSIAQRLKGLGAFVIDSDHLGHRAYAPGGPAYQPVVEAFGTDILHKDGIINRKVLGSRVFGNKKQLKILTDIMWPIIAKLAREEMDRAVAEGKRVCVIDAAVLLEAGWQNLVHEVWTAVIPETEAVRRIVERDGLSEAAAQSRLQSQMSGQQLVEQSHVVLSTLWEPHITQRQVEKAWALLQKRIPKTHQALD
Procedure: PfDPCK and HsCOASY activity was measured by quantifying ADP produced in the reaction by a coupling assay using the ADP Hunter Plus assay kit (DiscoverX, USA) according to the manufacturer's instructions. Briefly, enzymatic reactions were carried out in a 20-μL mixture of assay buffer containing 15 mM HEPES, 20 mM NaCl, 1 mM EGTA, 0.02% Tween 20, 10 mM MgCl2, 0.1% bovine gamma globulin, 50 ng of recombinant PfDPCK or HsCOASY, 4 to 256 μM dephospho-CoA, and 5 to 300 μM ATP on a black microplate. All reactions were performed for 2 h, reagents A and B were added, and they were then reincubated for 60 min at 30°C. After reactions were terminated by addition of ADP Hunter Stop solution, the fluorescent signal was measured using SpectraMax Paradigm (Molecular Devices, CA, USA) at excitation and emission wavelengths of 530 and 590 nm, respectively. The kinetic parameters were calculated using the nonlinear regression function using the single saturating concentrations of the substrates by the GraphPad Prism software (GraphPad Software Inc., San Diego, CA). The experiments were repeated three times in triplicate using proteins purified from independent cultures. […]
The primary hits were reassayed in quadruplicate (n = 4) as in the primary screening. We next tested the confirmed secondary hits to exclude false positives that inhibit coupled fluorescence assay, but not PfDPCK. […]

## CC(C)(C)c1cc(C(=O)Cn2c(NCCO)nc3ccccc32)cc(C(C)(C)C)c1O [Compound A-15]
[1]
  IC50: 9.26 ± 0.26 µM
HepG2 cell line
  IC50: 29.9 ± 3.61 µM
HsCOASY
  inhibition of HsCOASY: inhibits PfDPCK, but not HsCOASY
